≈ marks a conversion by molar mass, not a printed value. Numbered stars: 1 amine (or outer) side, 2 acyl side, 3 side chain; on linkers, the order of the positions; unused ones are H or OH. Square brackets hold non-standard residues; d marks the D form. Peptide text beside a SMILES is read from it. * marks the point of attachment. X1 = CC(C)(C(=O)c1ccc(C(F)(F)F)cc1)C(=O)*; βPro(3R) = O=C([C@@H]1CCN([*:1])C1)[*:2]; Phe(ol) = N[C@H](CO)Cc1ccccc1; Aib = CC(C)(N)C(=O)O
Experiments:
Format in all cases: functional
Staphylococcus aureus [1] = assay: Antibacterial activity against Staphylococcus aureus assessed as inhibition zone at 1 mg/ml measured after overnight incubation by disc diffusion method; conditions: read-out: IZ
Bacillus subtilis [2] = assay: Antibacterial activity against Bacillus subtilis assessed as inhibition zone at 1 mg/ml measured after overnight incubation by disc diffusion method; conditions: read-out: IZ
Pseudomonas aeruginosa [3] = assay: Antibacterial activity against Pseudomonas aeruginosa assessed as inhibition zone at 1 mg/ml measured after overnight incubation by disc diffusion method; conditions: read-out: IZ
Escherichia coli [4] = assay: Antibacterial activity against Escherichia coli assessed as inhibition zone at 1 mg/ml measured after overnight incubation by disc diffusion method; conditions: read-out: IZ
Aspergillus niger = assay: Antibacterial activity against Aspergillus niger ATCC 9029 incubated for 24 hrs by broth microdilution method
Escherichia coli [5] = assay: Antibacterial activity against Escherichia coli ATCC 25922 incubated for 24 hrs by broth microdilution method
Staphylococcus aureus [6] = assay: Antibacterial activity against Staphylococcus aureus ATCC 12598 incubated for 24 hrs by broth microdilution method
Bacillus subtilis [7] = assay: Antibacterial activity against Bacillus subtilis ATCC 6051 incubated for 24 hrs by broth microdilution method
Pseudomonas aeruginosa [8] = assay: Antibacterial activity against Pseudomonas aeruginosa ATCC 25619 incubated for 24 hrs by broth microdilution method
Candida albicans = assay: Antifungal activity against Candida albicans ATCC 2091 incubated for 24 hrs by broth microdilution method
Bacillus cereus = assay: Antibacterial activity against Bacillus cereus
Staphylococcus aureus [9] = assay: Antibacterial activity against Staphylococcus aureus

MIC (Aspergillus niger) [µg/mL] | MIC (Escherichia coli [5]) [µg/mL] | MIC (Staphylococcus aureus [6]) [µg/mL] | MIC (Bacillus subtilis [7]) [µg/mL] | MIC (Pseudomonas aeruginosa [8]) [µg/mL] | MIC (Candida albicans) [µg/mL] | MIC (Bacillus cereus) [µg/mL] | MIC (Staphylococcus aureus [9]) [µg/mL] | SMILES | zone of inhibition at 1000 µg/mL (Staphylococcus aureus [1]) [mm] | zone of inhibition at 1000 µg/mL (Bacillus subtilis [2]) [mm] | zone of inhibition at 1000 µg/mL (Pseudomonas aeruginosa [3]) [mm] | zone of inhibition at 1000 µg/mL (Escherichia coli [4]) [mm]
– | – | – | – | – | – | – | – | c1ccc(-c2nnc(-c3ccccc3NCc3cn(-c4ccccc4-c4ccc(-c5nnco5)cc4)nn3)o2)cc1 | 2.5 | 2.5 | 2.5 | 2.5
0.2 (≈ 0.668 µM) | 0.2 (≈ 0.668 µM) | 0.2 (≈ 0.668 µM) | 25 (≈ 83.5 µM) | 25 (≈ 83.5 µM) | 0.2 (≈ 0.668 µM) | – | – | Cc1ccc2c(Cn3nnc(C)c3C(=O)O)cc(=O)oc2c1 | – | – | – | –
0.2 (≈ 0.673 µM) | 0.2 (≈ 0.673 µM) | 0.2 (≈ 0.673 µM) | 25 (≈ 84.1 µM) | 25 (≈ 84.1 µM) | 0.2 (≈ 0.673 µM) | – | – | COc1ccc2oc(=O)cc(Cn3nnc(N)c3C#N)c2c1 | – | – | – | –
– | – | – | – | – | – | – | – | Cc1ccc(-n2cc(CNc3ccccc3-c3nnc(-c4ccccc4)o3)nn2)cc1 | 2.5 | 2.5 | 2.5 | 2.5
– | – | – | – | – | – | – | – | c1ccc(Cn2cc(CNc3ccccc3-c3nnc(-c4ccccc4)o3)nn2)cc1 | 2.5 | 2.5 | 2.5 | 2.5
0.2 (≈ 0.711 µM) | 0.4 (≈ 1.42 µM) | 1.6 (≈ 5.69 µM) | 25 (≈ 88.9 µM) | 25 (≈ 88.9 µM) | 0.2 (≈ 0.711 µM) | – | – | Cc1ccc2oc(=O)cc(Cn3nnc(N)c3C#N)c2c1 | – | – | – | –
– | – | – | – | – | – | – | – | Fc1ccccc1-n1cc(CNc2ccccc2-c2nnc(-c3ccccc3)o2)nn1 | 2.5 | 2.5 | 2.5 | 2.5
0.2 (≈ 0.56 µM) | 0.2 (≈ 0.56 µM) | 0.2 (≈ 0.56 µM) | 25 (≈ 70 µM) | 25 (≈ 70 µM) | 0.2 (≈ 0.56 µM) | – | – | CCOC(=O)c1c(C)nnn1Cc1cc(=O)oc2ccc3c(c12)OCO3 | – | – | – | –
– | – | – | – | – | – | – | – | O=[N+]([O-])c1cccc(-n2cc(CNc3ccccc3-c3nnc(-c4ccccc4)o3)nn2)c1 | 2.5 | 2.5 | 2.5 | 2.5
– | – | – | – | – | – | – | – | CC1COc2c(N3CCN(C)CC3)c(F)cc3c(=O)c(C(=O)O)cn1c23 (stereo not given) [OFLOXACIN] | 2.5 | 2.5 | 2.5 | 2.5
– | – | – | – | – | – | – | – | COc1ccc(-n2cc(CNc3ccccc3-c3nnc(-c4ccccc4)o3)nn2)c([N+](=O)[O-])c1 | 2.5 | 2.5 | 2.5 | 2.5
– | – | – | – | – | – | – | – | Clc1ccc(-n2cc(CNc3ccccc3-c3nnc(-c4ccccc4)o3)nn2)cc1 | 2.5 | 2.5 | 2.5 | 2.5
– | – | – | – | – | – | 12.5 (≈ 6.01 µM) | 1.56 (≈ 0.751 µM) | CC(C)C[C@H](NC(=O)CNC(=O)C(C)(C)NC(=O)[C@@H](NC(=O)C(C)(C)NC(=O)[C@H](CCC(N)=O)NC(=O)[C@H](C)NC(=O)C(C)(C)NC(=O)[C@H](C)NC(=O)C(C)(C)NC(=O)[C@@H]1CCN(C(=O)C(C)(C)C(=O)c2ccc(C(F)(F)F)cc2)C1)C(C)C)C(=O)NC(C)(C)C(=O)N1CCC[C@H]1C(=O)N[C@H](C(=O)NC(C)(C)C(=O)NC(C)(C)C(=O)N[C@@H](CCC(N)=O)C(=O)N[C@@H](CCC(N)=O)C(=O)N[C@H](CO)Cc1ccccc1)C(C)C (X1-[βPro(3R)][Aib]A[Aib]AQ[Aib]V[Aib]GL[Aib]PV[Aib][Aib]QQ[Phe(ol)]) | – | – | – | –
0.2 (≈ 0.711 µM) | 0.2 (≈ 0.711 µM) | 0.2 (≈ 0.711 µM) | 25 (≈ 88.9 µM) | 25 (≈ 88.9 µM) | 0.2 (≈ 0.711 µM) | – | – | Cc1ccc2c(Cn3nnc(N)c3C#N)cc(=O)oc2c1 | – | – | – | –
0.2 (≈ 0.643 µM) | 0.2 (≈ 0.643 µM) | 0.2 (≈ 0.643 µM) | 25 (≈ 80.3 µM) | 25 (≈ 80.3 µM) | 0.2 (≈ 0.643 µM) | – | – | N#Cc1c(N)nnn1Cc1cc(=O)oc2ccc3c(c12)OCO3 | – | – | – | –
– | – | – | – | – | – | – | – | c1ccc(-c2nnc(-c3ccccc3NCc3cn(-c4ccccc4)nn3)o2)cc1 | 2.5 | 2.5 | 2.5 | 2.5
0.2 (≈ 0.643 µM) | 0.2 (≈ 0.643 µM) | 0.2 (≈ 0.643 µM) | 25 (≈ 80.3 µM) | 25 (≈ 80.3 µM) | 0.2 (≈ 0.643 µM) | – | – | N#Cc1c(N)nnn1Cc1cc(=O)oc2c3c(ccc12)OCO3 | – | – | – | –

— ChEMBL document CHEMBL4699440, “Comprehensive review on the anti-bacterial activity of 1,2,3-triazole hybrids” (Eur J Med Chem, 2019)
